Key:
Format in all cases: functional
[1] = tested on: NCI/ADR-RES; assay: Antiproliferative activity against human NCI/ADR-RES cells assessed as cell growth at 50 uM by SRB assay; details: read-out: Activity
[2] = tested on: SNB-19; assay: Antiproliferative activity against human SNB19 cells assessed as cell growth at 50 uM by SRB assay; details: read-out: Activity
[3] = tested on: ACHN; assay: Antiproliferative activity against human ACHN cells assessed as cell growth at 500 uM by SRB assay; details: read-out: Activity
[4] = tested on: UACC-257; assay: Antiproliferative activity against human UACC257 cells assessed as cell growth at 50 uM by SRB assay; details: read-out: Activity
[5] = tested on: A549; assay: Antiproliferative activity against human A549 cells assessed as cell growth at 5 uM by SRB assay; details: read-out: Activity
[6] = tested on: MDA-MB-231; assay: Antiproliferative activity against human MDA-MB-231 cells assessed as cell growth at 500 uM by SRB assay; details: read-out: Activity
[7] = tested on: NCI-H522; assay: Antiproliferative activity against human NCI-H522 cells assessed as cell growth at 0.5 uM by SRB assay; details: read-out: Activity
[8] = tested on: OVCAR-5; assay: Antiproliferative activity against human OVCAR5 cells at 5 mM by SRB assay
[9] = tested on: SK-MEL-5; assay: Antiproliferative activity against human SK-MEL-5 cells by SRB assay
[10] = tested on: HCC 2998; assay: Antiproliferative activity against human HCC2998 cells by SRB assay
[11] = Antiproliferative activity against human Hs 578T cells assessed as cell growth at 5 uM by SRB assay; details: read-out: Activity
[12] = tested on: NCI-H460; assay: Antiproliferative activity against human NCI-H460 cells assessed as cell growth at 5 mM by SRB assay; details: read-out: Activity
[13] = tested on: SK-OV-3; assay: Antiproliferative activity against human SKOV3 cells by SRB assay
[14] = tested on: OVCAR-3; assay: Antiproliferative activity against human OVCAR-3 cells assessed as cell growth at 0.5 uM by SRB assay; details: read-out: Activity
[15] = tested on: COLO 205; assay: Antiproliferative activity against human COLO205 cells assessed as cell growth at 5 uM by SRB assay; details: read-out: Activity
[16] = tested on: K562; assay: Antiproliferative activity against human K562 cells assessed as cell growth at […] by SRB assay; details: read-out: Activity
[17] = tested on: SK-MEL-28; assay: Antiproliferative activity against human SK-MEL-28 cells assessed as cell growth at 0.5 uM by SRB assay; details: read-out: Activity
[18] = tested on: COLO 205; assay: Antiproliferative activity against human COLO205 cells assessed as cell growth at 50 uM by SRB assay; details: read-out: Activity
[19] = tested on: SW-620; assay: Antiproliferative activity against human SW620 cells assessed as cell growth at 500 uM by SRB assay; details: read-out: Activity
[20] = tested on: HL-60(TB); assay: Antiproliferative activity against human HL-60(TB) cells by SRB assay
[21] = tested on: 786-0; assay: Antiproliferative activity against human 786-0 cells assessed as cell growth at 5 uM by SRB assay; details: read-out: Activity
[22] = tested on: K562; assay: Antiproliferative activity against human K562 cells assessed as cell growth at 0.5 uM by SRB assay; details: read-out: Activity
[23] = tested on: SK-MEL-5; assay: Antiproliferative activity against human SK-MEL-5 cells assessed as cell growth at 5 uM by SRB assay; details: read-out: Activity
[24] = tested on: HOP-62; assay: Antiproliferative activity against human HOP62 cells assessed as cell growth at 500 uM by SRB assay; details: read-out: Activity
[25] = tested on: IGROV-1; assay: Antiproliferative activity against human IGROV1 cells by SRB assay
[26] = tested on: SK-OV-3; assay: Antiproliferative activity against human SKOV3 cells assessed as cell growth at 5 uM by SRB assay; details: read-out: Activity
[27] = tested on: A498; assay: Antiproliferative activity against human A498 cells assessed as cell growth at 500 uM by SRB assay; details: read-out: Activity
[28] = tested on: NCI/ADR-RES; assay: Antiproliferative activity against human NCI/ADR-RES cells assessed as cell growth at 5 uM by SRB assay; details: read-out: Activity
[29] = tested on: HOP-92; assay: Antiproliferative activity against human HOP92 cells assessed as cell growth at 0.5 uM by SRB assay; details: read-out: Activity
[30] = tested on: SNB-19; assay: Antiproliferative activity against human SNB19 cells assessed as cell growth at 0.5 uM by SRB assay; details: read-out: Activity
[31] = Antiproliferative activity against human […] cells by SRB assay
[32] = tested on: EKVX; assay: Antiproliferative activity against human EKVX cells assessed as cell growth at 500 uM by SRB assay; details: read-out: Activity
[33] = tested on: OVCAR-5; assay: Antiproliferative activity against human OVCAR5 cells at 5 uM by SRB assay
[34] = tested on: HOP-62; assay: Antiproliferative activity against human HOP62 cells assessed as cell growth at […] by SRB assay; details: read-out: Activity
[35] = tested on: SN12C; assay: Antiproliferative activity against human SN12C cells by SRB assay
[36] = tested on: UO-31; assay: Antiproliferative activity against human UO31 cells assessed as cell growth at 50 uM by SRB assay; details: read-out: Activity
[37] = tested on: SF-539; assay: Antiproliferative activity against human SF539 cells assessed as cell growth at 500 uM by SRB assay; details: read-out: Activity
[38] = tested on: ACHN; assay: Antiproliferative activity against human ACHN cells by SRB assay
[39] = tested on: MCF7; assay: Antiproliferative activity against human MCF7 cells assessed as cell growth at 500 uM by SRB assay; details: read-out: Activity
[40] = tested on: CAKI-1; assay: Antiproliferative activity against human Caki1 cells assessed as cell growth at 5 uM by SRB assay; details: read-out: Activity
[41] = tested on: EKVX; assay: Antiproliferative activity against human EKVX cells by SRB assay
[42] = read-out: LC50 (the source's name)
[43] = read-out: pLC50 (the source's name) (converted)

O=C(/C=C/c1ccc(O)c(O)c1)OCCc1ccc(O)c(O)c1
growth at 50 µM [1]: 99% | growth at 50 µM [2]: 94% | growth at 500 µM [3]: 38% | growth at 50 µM [4]: 92% | growth at 5 µM [5]: 97% | growth at 500 µM [6]: 85% | growth at 0.5 µM [7]: 74% | Activity [8]: 51% | GI50 ([9]; read-out: GI50): 8.12 µM | CC50 [9, 42]: > 50 µM | TGI ([9]; read-out: TGI): 47.7 µM | GI50 ([9]; read-out: pGI50 (converted)): 8.13 µM | CC50 [9, 43]: > 50.1 µM | TGI ([9]; read-out: pTGI (converted)): 47.9 µM | GI50 ([10]; read-out: GI50): 14.6 µM | CC50 [10, 42]: > 50 µM | TGI ([10]; read-out: TGI): > 50 µM | GI50 ([10]; read-out: pGI50 (converted)): 14.5 µM | CC50 [10, 43]: > 50.1 µM | TGI ([10]; read-out: pTGI): > 50.1 µM | growth at 5 µM [11]: 80% | growth at 5000 µM [12]: 1% | GI50 ([13]; read-out: GI50): 13.7 µM | CC50 [13, 42]: > 50 µM | TGI ([13]; read-out: TGI): > 50 µM | GI50 ([13]; read-out: pGI50 (converted)): 13.2 µM | CC50 [13, 43]: > 50.1 µM | TGI ([13]; read-out: pTGI): > 50.1 µM | growth at 0.5 µM [14]: 104% | growth at 5 µM [15]: 94% | growth [16]: -8% | growth at 0.5 µM [17]: 97% | growth at 50 µM [18]: 89% | growth at 500 µM [19]: 64% | GI50 ([20]; read-out: GI50): 2540 nM | CC50 [20, 42]: > 50 µM | TGI ([20]; read-out: TGI): 17.7 µM | GI50 ([20]; read-out: pGI50 (converted)): 2630 nM | CC50 [20, 43]: > 50.1 µM | TGI ([20]; read-out: pTGI (converted)): 17.8 µM | growth at 5 µM [21]: 98% | growth at 0.5 µM [22]: 107% | growth at 5 µM [23]: 97% | growth at 500 µM [24]: 95% | GI50 ([25]; read-out: GI50): 2860 nM | CC50 [25, 42]: > 50 µM | TGI ([25]; read-out: TGI): 24.4 µM | GI50 ([25]; read-out: pGI50 (converted)): 2880 nM | CC50 [25, 43]: > 50.1 µM | TGI ([25]; read-out: pTGI (converted)): 15.5 µM | growth at 5 µM [26]: 96% | growth at 500 µM [27]: 68% | growth at 5 µM [28]: 98% | growth at 0.5 µM [29]: 70% | growth at 0.5 µM [30]: 93% | GI50 ([31]; read-out: GI50): 630 nM | CC50 [31, 42]: > 50 µM | TGI ([31]; read-out: TGI): 8.48 µM | GI50 ([31]; read-out: pGI50 (converted)): 631 nM | CC50 [31, 43]: > 50.1 µM | TGI ([31]; read-out: pTGI (converted)): 8.51 µM | growth at 500 µM [32]: 78% | Activity [33]: 89% | growth [34]: 38% | GI50 ([35]; read-out: GI50): 9.09 µM | CC50 [35, 42]: > 50 µM | TGI ([35]; read-out: TGI): > 50 µM | GI50 ([35]; read-out: pGI50 (converted)): 9.12 µM | CC50 [35, 43]: > 50.1 µM | TGI ([35]; read-out: pTGI): > 50.1 µM | growth at 50 µM [36]: 82% | growth at 500 µM [37]: 55% | GI50 ([38]; read-out: GI50): 2940 nM | CC50 [38, 42]: > 50 µM | TGI ([38]; read-out: TGI): 38.7 µM | GI50 ([38]; read-out: pGI50 (converted)): 2950 nM | CC50 [38, 43]: > 50.1 µM | TGI ([38]; read-out: pTGI (converted)): 38.9 µM | growth at 500 µM [39]: 45% | growth at 5 µM [40]: 83% | GI50 ([41]; read-out: GI50): 14.9 µM | CC50 [41, 42]: > 50 µM | TGI ([41]; read-out: TGI): > 50 µM | GI50 ([41]; read-out: pGI50 (converted)): 14.8 µM | CC50 [41, 43]: > 50.1 µM | TGI ([41]; read-out: pTGI): > 50.1 µM

Reference: ChEMBL document CHEMBL1154899, “Synthesis and biological evaluation of caffeic acid 3,4-dihydroxyphenethyl ester” (J Nat Prod, 2010)
